Laboratory results: PubChem BioAssay AID248 (DTP/NCI, 2004)
Values joined by “and” are separate entries in the source; they are usually repeats but may differ in a detail not shown here. Equal values may be shown once. Toxic doses and inconclusive results are not listed. Rule as the data show it: active = T/C of 150% or more; inactive = T/C below 125%.

Test system: L1210 leukemia ip in BDF1 mice, survival T/C
Test: NCI In Vivo Anticancer Drug Screen. Data for tumor model L1210 Leukemia (intraperitoneal) in B6D2F1 (BDF1) mice
Settings: endpoint: mean survival time, higher = longer survival
How it was run: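 Ratio derived from survival: compound-dosed mice over vehicle-dosed mice, all bearing a transplantable tumor.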

[1] = dose: 100.0 mg/kg/injection, schedule: Q04DX003 (ip), vehicle: saline
[2] = dose: 200.0 mg/kg/injection, schedule: Q04DX003 (ip), vehicle: saline
[3] = dose: 400.0 mg/kg/injection, schedule: Q04DX003 (ip), vehicle: saline
[4] = dose: 100.0 mg/kg/injection, schedule: Q04DX003 (ip), vehicle: Klucel (hydroxypropylcellulose) (HPC)
[5] = dose: 200.0 mg/kg/injection, schedule: Q04DX003 (ip), vehicle: Klucel (hydroxypropylcellulose) (HPC)
[6] = dose: 400.0 mg/kg/injection, schedule: Q04DX003 (ip), vehicle: Klucel (hydroxypropylcellulose) (HPC)
[7] = dose: 100.0 mg/kg/injection, schedule: Q01DX001 (ip), vehicle: saline
[8] = dose: 200.0 mg/kg/injection, schedule: Q01DX001 (ip), vehicle: saline
[9] = dose: 400.0 mg/kg/injection, schedule: Q01DX001 (ip), vehicle: saline
[10] = dose: 100.0 mg/kg/injection, schedule: Q01DX009 (ip), vehicle: Klucel (hydroxypropylcellulose) (HPC)
[11] = dose: 200.0 mg/kg/injection, schedule: Q01DX009 (ip), vehicle: Klucel (hydroxypropylcellulose) (HPC)
[12] = dose: 5.0 mg/kg/injection, schedule: Q01DX001 (ip), vehicle: saline
[13] = dose: 10.0 mg/kg/injection, schedule: Q01DX001 (ip), vehicle: saline
[14] = dose: 20.0 mg/kg/injection, schedule: Q01DX001 (ip), vehicle: saline
[15] = dose: 100.0 mg/kg/injection, schedule: Q01DX009 (ip), vehicle: saline with Tween-80
[16] = dose: 200.0 mg/kg/injection, schedule: Q01DX009 (ip), vehicle: saline with Tween-80
[17] = dose: 400.0 mg/kg/injection, schedule: Q01DX009 (ip), vehicle: saline with Tween-80
[18] = dose: 100.0 mg/kg/injection, schedule: Q04DX003 (ip), vehicle: saline with Tween-80
[19] = dose: 200.0 mg/kg/injection, schedule: Q04DX003 (ip), vehicle: saline with Tween-80
[20] = dose: 400.0 mg/kg/injection, schedule: Q04DX003 (ip), vehicle: saline with Tween-80

Measured: T/C

C[N+]12CN3CN(C1)S(=O)(=O)N(C3)C2
inactive: dose: 100.0 mg/kg/injection, schedule: Q01DX009 (ip), vehicle: saline 107 % of control | [1] 95 % of control | dose: 200.0 mg/kg/injection, schedule: Q01DX009 (ip), vehicle: saline 108 % of control | [2] 97 % of control | dose: 400.0 mg/kg/injection, schedule: Q01DX009 (ip), vehicle: saline 110 % of control | [3] 103 % of control

CCOC(=O)c1ccc(N2C(N)=NC(N)=NC2(C)C)cc1
inactive: [1] 101 % of control

C=CC[N+](CC=C)(CC=C)CCC[N+](CC=C)(CC=C)CC=C
inactive: dose: 12.5 mg/kg/injection, schedule: Q01DX009 (ip), vehicle: water 98 % of control | dose: 25.0 mg/kg/injection, schedule: Q01DX009 (ip), vehicle: water 98 % of control and 101 % of control | dose: 50.0 mg/kg/injection, schedule: Q01DX009 (ip), vehicle: water 102 % of control and 108 % of control

c1ccc2c(c1)OB(C1CCCC1)O2
inactive: [4] 95 % of control | [5] 93 % of control | [6] 100 % of control

COc1ccc(/C=N\NC(=O)N/N=C/c2ccc(OC)c(OC)c2)cc1OC
inactive: dose: 50.0 mg/kg/injection, schedule: Q01DX001 (ip), vehicle: Klucel (hydroxypropylcellulose) (HPC) 90 % of control | dose: 100.0 mg/kg/injection, schedule: Q01DX001 (ip), vehicle: Klucel (hydroxypropylcellulose) (HPC) 95 % of control

Cc1cc(=O)[nH]c(N/N=C/c2c(O)ccc3ccccc23)n1
inactive: [7] 96 % of control | [8] 94 % of control | [9] 89 % of control

CCCCCCC(=O)CC(C)C
inactive: [10] 101 % of control | [4] 97 % of control | [11] 103 % of control | [5] 102 % of control | dose: 400.0 mg/kg/injection, schedule: Q01DX009 (ip), vehicle: Klucel (hydroxypropylcellulose) (HPC) 109 % of control | [6] 107 % of control

c1ccc([P+](CCCCCCCCCC[P+](c2ccccc2)(c2ccccc2)c2ccccc2)(c2ccccc2)c2ccccc2)cc1
inactive: [12] 105 % of control | [13] 102 % of control | [14] 110 % of control

S=C1SCN(CCc2ccccc2)CN1CCc1ccccc1
inactive: dose: 100.0 mg/kg/injection, schedule: Q04DX002 (ip), vehicle: gum acacia 92 % of control | dose: 200.0 mg/kg/injection, schedule: Q04DX002 (ip), vehicle: gum acacia 98 % of control | dose: 400.0 mg/kg/injection, schedule: Q04DX002 (ip), vehicle: gum acacia 92 % of control

Br/C(=N\Nc1nn[nH]n1)c1ccccc1
inactive: [15] 93 % of control | [16] 98 % of control | [17] 95 % of control

COc1cc2ccc(CN3CCCC3C(=O)OCc3ccccc3)cc2cc1OC (stereo not drawn)
inactive: dose: 100.0 mg/kg/injection, schedule: Q01DX009 (ip), vehicle: saline sonified 100 % of control | dose: 100.0 mg/kg/injection, schedule: Q04DX003 (ip), vehicle: saline sonified 95 % of control | dose: 200.0 mg/kg/injection, schedule: Q01DX009 (ip), vehicle: saline sonified 96 % of control | dose: 200.0 mg/kg/injection, schedule: Q04DX003 (ip), vehicle: saline sonified 96 % of control | dose: 400.0 mg/kg/injection, schedule: Q01DX009 (ip), vehicle: saline sonified 91 % of control | dose: 400.0 mg/kg/injection, schedule: Q04DX003 (ip), vehicle: saline sonified 96 % of control

O=C1NC(c2ccco2)N2C(=O)NC(c3ccco3)N12 (stereo not drawn)
inactive: dose: 100.0 mg/kg/injection, schedule: Q01DX009 (ip), vehicle: gum acacia 90 % of control | dose: 100.0 mg/kg/injection, schedule: Q04DX003 (ip), vehicle: gum acacia 101 % of control | dose: 200.0 mg/kg/injection, schedule: Q01DX009 (ip), vehicle: gum acacia 88 % of control | dose: 200.0 mg/kg/injection, schedule: Q04DX003 (ip), vehicle: gum acacia 95 % of control | dose: 400.0 mg/kg/injection, schedule: Q01DX009 (ip), vehicle: gum acacia 88 % of control | dose: 400.0 mg/kg/injection, schedule: Q04DX003 (ip), vehicle: gum acacia 106 % of control

CC(=O)CC(=O)Nc1ccc(Cc2ccccc2)cc1
inactive: [7] 93 % of control | [8] 94 % of control | [9] 109 % of control

C=C[P+](c1ccccc1)(c1ccccc1)c1ccccc1
inactive: dose: 0.78 mg/kg/injection, schedule: Q01DX009 (ip), vehicle: saline 124 % of control | dose: 1.56 mg/kg/injection, schedule: Q01DX009 (ip), vehicle: saline 104 % of control | dose: 1.56 mg/kg/injection, schedule: Q04DX003 (ip), vehicle: saline 108 % of control | dose: 3.12 mg/kg/injection, schedule: Q01DX009 (ip), vehicle: saline 93 % of control | dose: 3.12 mg/kg/injection, schedule: Q04DX003 (ip), vehicle: saline 112 % of control | [12] 115 % of control | dose: 8.88 mg/kg/injection, schedule: Q01DX001 (ip), vehicle: saline 102 % of control and 104 % of control | [13] 115 % of control | dose: 10.0 mg/kg/injection, schedule: Q04DX003 (ip), vehicle: saline 98 % of control | dose: 13.34 mg/kg/injection, schedule: Q01DX001 (ip), vehicle: saline 102 % of control and 104 % of control | [14] 102 % of control and 104 % of control | dose: 20.0 mg/kg/injection, schedule: Q04DX003 (ip), vehicle: saline 92 % of control | dose: 30.0 mg/kg/injection, schedule: Q01DX001 (ip), vehicle: saline 101 % of control and 105 % of control | dose: 40.0 mg/kg/injection, schedule: Q01DX001 (ip), vehicle: saline 97 % of control

O=C1NC2c3ccccc3CCC12 (stereo not drawn)
inactive: dose: 100.0 mg/kg/injection, schedule: Q04DX002 (ip), vehicle: saline with Tween-80 102 % of control | dose: 200.0 mg/kg/injection, schedule: Q04DX002 (ip), vehicle: saline with Tween-80 100 % of control | dose: 400.0 mg/kg/injection, schedule: Q04DX002 (ip), vehicle: saline with Tween-80 96 % of control

CC12CCC3C(CC4OC45CC(O)CCC35C)C1CCC21CO1 (stereo not drawn)
inactive: dose: 50.0 mg/kg/injection, schedule: Q01DX001 (sc), vehicle: steriod suspending solution 98 % of control | dose: 100.0 mg/kg/injection, schedule: Q01DX001 (sc), vehicle: steriod suspending solution 104 % of control | dose: 200.0 mg/kg/injection, schedule: Q01DX001 (sc), vehicle: steriod suspending solution 95 % of control | dose: 400.0 mg/kg/injection, schedule: Q01DX001 (sc), vehicle: steriod suspending solution 101 % of control

CC1(C)CC(=O)C=C(N)C1
inactive: [18] 97 % of control | [19] 92 % of control | [20] 95 % of control

O=[N+]([O-])c1ccc(/C=N/Nc2ccnc3cc(Cl)ccc23)s1
inactive: [1] 96 % of control | [2] 96 % of control | [3] 96 % of control

CC1CCc2cc3c(cc2C1)S(=O)(=O)c1ccccc1-3 (stereo not drawn)
inactive: [7] 96 % of control | [8] 86 % of control | [9] 86 % of control

BrC(c1ccccc1)C(Br)[n+]1ccccc1 (stereo not drawn)
inactive: dose: 75.0 mg/kg/injection, schedule: Q01DX001 (ip), vehicle: other 107 % of control

Cc1cc(Br)c2ccccc2c1NS(=O)(=O)c1ccccc1
inactive: [15] 100 % of control | [18] 109 % of control | [16] 90 % of control | [19] 100 % of control | [17] 92 % of control | [20] 105 % of control

O=C1OCC/C1=C/CCCC/C=C1\CCOC1=O
inactive: [10] 93 % of control | [4] 94 % of control | [11] 98 % of control | dose: 266.0 mg/kg/injection, schedule: Q04DX003 (ip), vehicle: Klucel (hydroxypropylcellulose) (HPC) 93 % of control | [6] 94 % of control

CCOCC(=O)CC(C)(C)C
inactive: dose: 50.0 mg/kg/injection, schedule: Q01DX009 (ip), vehicle: saline with Tween-80 92 % of control | [15] 92 % of control | [16] 103 % of control
